# Test system: 616215-338-R-J1-PDC complex spheroid viability
# Assay: Anticancer human tumor 616215-338-R-J1-PDC patient-derived colon adenocarcinoma cell line growth inhibition [POLQ]
# Conditions: for IC50: curve of first compound; for viability, T/C: stronger effect = lower value
# Summary of the method: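 Three-cell-type spheroids modelling solid tumor plus stroma served as the readout system; POL inhibitors were tested individually and in combination, concentration ranges set by clinical Cmax where known.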
# [1] = second compound 0.0316 µM, first compound 0.0316 µM
# [2] = second compound 0.0316 µM, first compound 0.1 µM
# [3] = second compound 0.0316 µM, first compound 0.316 µM
# [4] = second compound 0.0316 µM, first compound 1 µM
# [5] = second compound 0.0316 µM, first compound 3.16 µM
# [6] = second compound 0.0316 µM, first compound 10 µM
# [7] = second compound 0.1 µM, first compound 0.0316 µM
# [8] = second compound 0.1 µM, first compound 0.1 µM
# [9] = second compound 0.1 µM, first compound 0.316 µM
# [10] = second compound 0.1 µM, first compound 1 µM
# [11] = second compound 0.1 µM, first compound 3.16 µM
# [12] = second compound 0.1 µM, first compound 10 µM
# [13] = second compound 0.316 µM, first compound 0.0316 µM
# [14] = second compound 0.316 µM, first compound 0.1 µM
# [15] = second compound 0.316 µM, first compound 0.316 µM
# [16] = second compound 0.316 µM, first compound 1 µM
# [17] = second compound 0.316 µM, first compound 3.16 µM
# [18] = second compound 0.316 µM, first compound 10 µM
# [19] = second compound 1 µM, first compound 0.0316 µM
# [20] = second compound 1 µM, first compound 0.1 µM
# [21] = second compound 1 µM, first compound 0.316 µM
# [22] = second compound 1 µM, first compound 1 µM
# [23] = second compound 1 µM, first compound 3.16 µM
# [24] = second compound 1 µM, first compound 10 µM
# [25] = second compound 3.16 µM, first compound 0.0316 µM
# [26] = second compound 3.16 µM, first compound 0.1 µM
# [27] = second compound 3.16 µM, first compound 0.316 µM
# [28] = second compound 3.16 µM, first compound 1 µM
# [29] = second compound 3.16 µM, first compound 3.16 µM
# [30] = second compound 3.16 µM, first compound 10 µM
# [31] = second compound 10 µM, first compound 0.0316 µM
# [32] = second compound 10 µM, first compound 0.1 µM
# [33] = second compound 10 µM, first compound 0.316 µM
# [34] = second compound 10 µM, first compound 1 µM
# [35] = second compound 10 µM, first compound 3.16 µM
# [36] = second compound 10 µM, first compound 10 µM
# 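Also: spheroids exposed to compounds for one week before readout.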
# 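For viability, T/C in this document: percent viability relative to DMSO vehicle wells taken as 100%.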
smiles,measurement,setting,value
CC1COCCN1c1cc(C2(O)CC3CCC(C2)O3)c2cnn(-c3ccn[nH]3)c2n1 (centres undefined) + Nc1ccc(C#CCN(C(=O)Cc2ncc(C(F)(F)F)cc2C(F)(F)F)c2ccc(F)cc2)nn1,IC50,second compound 0.0316 µM,337 nM
same,IC50,second compound 0.1 µM,276 nM
same,IC50,second compound 0.316 µM,271 nM
same,IC50,second compound 1 µM,250 nM
same,IC50,second compound 3.16 µM,143 nM
same,IC50,second compound 10 µM,160 nM
same,"viability, T/C",[1],94.8%
same,"viability, T/C",[2],67.6%
same,"viability, T/C",[3],52.2%
same,"viability, T/C",[4],37.1%
same,"viability, T/C",[5],24.3%
same,"viability, T/C",[6],17.9%
same,"viability, T/C",[7],98.6%
same,"viability, T/C",[8],76.6%
same,"viability, T/C",[9],37.8%
same,"viability, T/C",[10],38.1%
same,"viability, T/C",[11],24.3%
same,"viability, T/C",[12],15.3%
same,"viability, T/C",[13],93.8%
same,"viability, T/C",[14],76.3%
same,"viability, T/C",[15],42%
same,"viability, T/C",[16],35.2%
same,"viability, T/C",[17],27.6%
same,"viability, T/C",[18],19.9%
same,"viability, T/C",[19],94.1%
same,"viability, T/C",[20],69.1%
same,"viability, T/C",[21],39.5%
same,"viability, T/C",[22],36.8%
same,"viability, T/C",[23],28.6%
same,"viability, T/C",[24],18.5%
same,"viability, T/C",[25],92.8%
same,"viability, T/C",[26],54.9%
same,"viability, T/C",[27],36.3%
same,"viability, T/C",[28],26.7%
same,"viability, T/C",[29],27.3%
same,"viability, T/C",[30],14.6%
same,"viability, T/C",[31],101%
same,"viability, T/C",[32],56.2%
same,"viability, T/C",[33],36.6%
same,"viability, T/C",[34],26.9%
same,"viability, T/C",[35],24.2%
same,"viability, T/C",[36],9.04%
O=C(Nc1ccc(O)c(NS(=O)(=O)c2ccc(F)cc2)c1)c1ccc(-c2ccccc2)cc1 + Nc1ccc(C#CCN(C(=O)Cc2ncc(C(F)(F)F)cc2C(F)(F)F)c2ccc(F)cc2)nn1,IC50,second compound 0.0316 µM,9930 nM
same,IC50,second compound 0.1 µM,> 10000 nM
same,IC50,second compound 0.316 µM,> 10000 nM
same,IC50,second compound 1 µM,> 10000 nM
same,IC50,second compound 3.16 µM,> 10000 nM
same,IC50,second compound 10 µM,6560 nM
same,"viability, T/C",[1],108%
same,"viability, T/C",[2],105%
same,"viability, T/C",[3],105%
same,"viability, T/C",[4],104%
same,"viability, T/C",[5],119%
same,"viability, T/C",[6],49.7%
same,"viability, T/C",[7],108%
same,"viability, T/C",[8],105%
same,"viability, T/C",[9],114%
same,"viability, T/C",[10],105%
same,"viability, T/C",[11],100%
same,"viability, T/C",[12],56%
same,"viability, T/C",[13],108%
same,"viability, T/C",[14],107%
same,"viability, T/C",[15],103%
same,"viability, T/C",[16],104%
same,"viability, T/C",[17],96.6%
same,"viability, T/C",[18],72.6%
same,"viability, T/C",[19],105%
same,"viability, T/C",[20],106%
same,"viability, T/C",[21],106%
same,"viability, T/C",[22],101%
same,"viability, T/C",[23],91.2%
same,"viability, T/C",[24],54%
same,"viability, T/C",[25],106%
same,"viability, T/C",[26],103%
same,"viability, T/C",[27],102%
same,"viability, T/C",[28],102%
same,"viability, T/C",[29],76.5%
same,"viability, T/C",[30],50.7%
same,"viability, T/C",[31],93.9%
same,"viability, T/C",[32],84.2%
same,"viability, T/C",[33],93.2%
same,"viability, T/C",[34],105%
same,"viability, T/C",[35],85.8%
same,"viability, T/C",[36],29.3%
